Laboratory results: ChEMBL document CHEMBL4482307 (2014)
pIC50: −log10 of the molar value. Calls of active or inactive are those of the source. The rule behind the calls is not given here.

Key:
c-Myc/Max (Homo sapiens) [1] = target: T1, c-Myc/Max (Homo sapiens) (UniProt P01106+P61244); assay: (§1) Inhibition of His6-tagged homogeneously purified recombinant Myc bHLH-LZ domain (unknown origin)/His6-tagged Max (151 residues) (unknown origin) interaction assessed as reduction in Myc/Max/DNA ternary complex formation using fluorescently-tagged (FAM) E-Box-containing double-stranded oligonucleotide at 100 uM by EMSA relative to control; format: protein-complex assay
c-Myc/Max = c-Myc/Max (Homo sapiens, UniProt P01106); assay: as §1, with “oligonucleotide” for “oligonucleotide at 100 uM”; format: protein-complex assay
c-Myc/Max (Homo sapiens) [2] = target: T1, c-Myc/Max (Homo sapiens); assay: Inhibition of Myc/Max protein interaction in human HL60 cells assessed as reduction in Myc/Max heterodimer formation at 1 to 12 uM by co-immunoprecipitation assay; format: cell-based
Daudi = assay: Antiproliferative activity against human Daudi cells assessed as reduction in cell proliferation incubated for 3 to 4 days by MTT assay; format: functional, cell-based
HL-60 [3] = assay: Antiproliferative activity against human HL60 cells assessed as reduction in cell proliferation incubated for 3 to 4 days by MTT assay; format: functional, cell-based
[4] = Half life in plasma (unknown origin); format: ADME, cell-free
HL-60 [5] = assay: Induction of cell cycle arrest in human HL60 cells assessed as accumulation at G2/M phase at 10 uM incubated for 24 to 48 hrs by propidium iodide staining based flow cytometric analysis (reference value: 14%); format: functional
HL-60 [6] = assay: Induction of cell cycle arrest in human HL60 cells assessed as accumulation at S phase at 5 uM incubated for 24 to 48 hrs by propidium iodide staining based flow cytometric analysis (reference value: 50%); format: functional
HL-60 [7] = assay: Induction of cell cycle arrest in human HL60 cells assessed as accumulation at G0/G1 phase at 10 uM incubated for 24 to 48 hrs by propidium iodide staining based flow cytometric analysis (reference value: 36%); format: functional
HL-60 [8] = assay: Induction of cell cycle arrest in human HL60 cells assessed as accumulation at S phase at 10 uM incubated for 24 to 48 hrs by propidium iodide staining based flow cytometric analysis (reference value: 50%); format: functional
HL-60 [9] = assay: Induction of cell cycle arrest in human HL60 cells assessed as accumulation at G2/M phase at 5 uM incubated for 24 to 48 hrs by propidium iodide staining based flow cytometric analysis (reference value: 14%); format: functional
HL-60 [10] = assay: Induction of cell cycle arrest in human HL60 cells assessed as accumulation at G0/G1 phase incubated for 24 to 48 hrs by propidium iodide staining based flow cytometric analysis; format: functional
[11] = target: Myc proto-oncogene protein (Homo sapiens) (UniProt P01106); assay: Inhibition of Myc in human HL60 cells co-transfected with Myc-responsive E-box elements assessed as reduction c-Myc promoter-mediated luciferase expression at 10 to 50 uM after 6 hrs; format: cell-based
HL-60 [12] = assay: Induction of cell cycle arrest in human HL60 cells assessed as accumulation at G0/G1 phase at 5 uM incubated for 24 to 48 hrs by propidium iodide staining based flow cytometric analysis (reference value: 36%); format: functional

O=C(O)c1ccc(Nc2ccc([N+](=O)[O-])c3nonc23)cc1
inhibition (c-Myc/Max (Homo sapiens) [1]): 93 to 94%

O=C(Oc1ccccc1)c1ccc(Nc2ccc([N+](=O)[O-])c3nonc23)cc1
pIC50 (c-Myc/Max): 4.40
inhibition (c-Myc/Max (Homo sapiens) [2]): Active
pIC50 (Daudi): 5.51 to 5.60

COC(=O)c1ccc(Nc2ccc([N+](=O)[O-])c3nonc23)cc1
pIC50 (HL-60 [3]): 4.70
pIC50 (Daudi): 5.11

O=[N+]([O-])c1ccc(Nc2cccc(-c3ccccc3)c2)c2nonc12
inhibition (c-Myc/Max (Homo sapiens) [1]): 20%

O=C(OCc1ccccc1)c1ccc(Nc2ccc([N+](=O)[O-])c3nonc23)cc1
pIC50 (HL-60 [3]): 5.14
pIC50 (Daudi): 5.46

CC(C)OC(=O)c1ccc(Nc2ccc([N+](=O)[O-])c3nonc23)cc1
pIC50 (HL-60 [3]): 5.03
pIC50 (Daudi): 5.51

O=[N+]([O-])c1ccc(Nc2ccccc2Br)c2nonc12
inhibition (c-Myc/Max (Homo sapiens) [1]): 39%

O=C(O)c1cc([N+](=O)[O-])ccc1Nc1ccccc1-c1ccccc1
inhibition (c-Myc/Max (Homo sapiens) [1]): 49%

O=[N+]([O-])c1ccc(Nc2ccccc2-c2ccccc2)c2nonc12
half-life [4]: 37 min
inhibition (c-Myc/Max (Homo sapiens) [1]): 38 to 39%

COC(=O)c1ccc(Nc2ccc([N+](=O)[O-])c3nonc23)c(-c2ccc(C)cc2)c1
Activity (HL-60 [5]): 17%
Activity (HL-60 [6]): 44%
Activity (HL-60 [7]): 59.5%
Activity (HL-60 [8]): 23%
Activity (HL-60 [9]): 12%
Activity (HL-60 [10]): Dose-dependent effect
inhibition [11]: Active
Activity (HL-60 [12]): 44%

CCOC(=O)c1ccc(Nc2ccc([N+](=O)[O-])c3nonc23)cc1
pIC50 (HL-60 [3]): < 4.60
pIC50 (Daudi): 5.13

O=C(OCC(F)(F)F)c1ccc(Nc2ccc([N+](=O)[O-])c3nonc23)cc1
inhibition (c-Myc/Max (Homo sapiens) [2]): Active
pIC50 (HL-60 [3]): 5.07
pIC50 (Daudi): 5.72

CC(=O)OCOC(=O)c1ccc(Nc2ccc([N+](=O)[O-])c3nonc23)cc1
pIC50 (HL-60 [3]): 4.50
pIC50 (Daudi): 4.51
